Laboratory results reported in publication PMC10477891, “Celastrol Combats Methicillin‐Resistant Staphylococcus aureus by Targeting Δ^1‐Pyrroline‐5‐Carboxylate Dehydrogenase” (Advanced Science, 2023).

Columns and labels:
[1] = molecular target: T1, P5CDH (Δ1-pyrroline-5-carboxylate dehydrogenase) (Staphylococcus aureus, UniProt Q2FDV3); experiment: P5CDH activity kit (FT-M52211); type: biochemical
T1 construct: gene rocA
T1 sequence (Q2FDV3 1-514): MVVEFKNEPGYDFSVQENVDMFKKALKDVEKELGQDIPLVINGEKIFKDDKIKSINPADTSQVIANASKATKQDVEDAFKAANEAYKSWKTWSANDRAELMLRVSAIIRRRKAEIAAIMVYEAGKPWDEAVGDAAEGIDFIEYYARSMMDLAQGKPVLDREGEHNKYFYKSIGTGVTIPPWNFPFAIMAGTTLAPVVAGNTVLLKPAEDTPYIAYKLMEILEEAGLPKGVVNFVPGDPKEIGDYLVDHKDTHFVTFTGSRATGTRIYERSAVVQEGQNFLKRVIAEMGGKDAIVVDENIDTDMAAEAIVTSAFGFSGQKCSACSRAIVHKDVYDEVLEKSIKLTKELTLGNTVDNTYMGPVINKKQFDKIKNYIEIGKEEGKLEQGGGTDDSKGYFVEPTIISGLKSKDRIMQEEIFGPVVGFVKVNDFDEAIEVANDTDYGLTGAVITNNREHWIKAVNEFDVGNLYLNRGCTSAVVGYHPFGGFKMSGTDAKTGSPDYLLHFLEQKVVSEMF

[2] = molecular target: T1, P5CDH (Δ1-pyrroline-5-carboxylate dehydrogenase); experiment: bio-layer interferometry (Octet NTA, immobilised P5CDH); type: binding

CC1=C(O)C(=O)C=C2C1=CC=C1[C@@]2(C)CC[C@@]2(C)[C@@H]3C[C@](C)(C(=O)O)CC[C@]3(C)CC[C@]12C [celastrol]
IC50 [1]: 10.9 µM | Kd [2]: 55 µM
